Measurements as given in ChEMBL document CHEMBL1201862, “PubChem BioAssay data set” (2004).
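All cell lines were grown in 96-well plates and treated with compound for 48 hours. Here, GI50 denotes the concentration required for 50% inhibition of growth.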 The source made the active and inactive calls. Rule as the data show it: active = GI50 up to about 1.1 µM and inactive = higher.

Tests used:
Assay in all cases: NCI-60 cell line screen, 48 h
SF-268 = test system: SF-268
PC-3 = test system: PC-3
DU-145 = test system: DU-145
NCI-H226 = test system: NCI-H226
SK-MEL-2 = test system: SK-MEL-2
BT-549 = test system: BT-549
Hs-578T = test system: Hs-578T
NCI/ADR-RES = test system: NCI/ADR-RES
MDA-MB-435 = test system: MDA-MB-435
ACHN = test system: ACHN
SF-539 = test system: SF-539
HCT-116 = test system: HCT-116
MOLT-4 = test system: MOLT-4
MCF7 = test system: MCF7
CCRF-CEM = test system: CCRF-CEM
A549 = test system: A549
SF-295 = test system: SF-295
HL-60 = test system: HL-60
LOX IMVI = test system: LOX IMVI
SW-620 = test system: SW-620
U-251 = test system: U-251
SK-MEL-28 = test system: SK-MEL-28
SK-OV-3 = test system: SK-OV-3
NCI-H522 = test system: NCI-H522
RXF 393 = test system: RXF 393
OVCAR-8 = test system: OVCAR-8
M14 = test system: M14
NCI-H23 = test system: NCI-H23
CAKI-1 = test system: CAKI-1
HT-29 = test system: HT-29
COLO 205 = test system: COLO 205
OVCAR-4 = test system: OVCAR-4
K562 = test system: K562
OVCAR-3 = test system: OVCAR-3
TK-10 = test system: TK-10
IGROV-1 = test system: IGROV-1
786-0 = test system: 786-0
SNB-75 = test system: SNB-75
HCC 2998 = test system: HCC 2998
SNB-19 = test system: SNB-19
SN12C = test system: SN12C
SR = test system: SR
Malme-3M = test system: Malme-3M
RPMI-8226 = test system: RPMI-8226
MDA-N = test system: MDA-N
UO-31 = test system: UO-31
EKVX = test system: EKVX
HOP-62 = test system: HOP-62
NCI-H460 = test system: NCI-H460
HCT-15 = test system: HCT-15
UACC-62 = test system: UACC-62
T47D = test system: T47D
OVCAR-5 = test system: OVCAR-5
KM12 = test system: KM12
SK-MEL-5 = test system: SK-MEL-5
MDA-MB-231 = test system: MDA-MB-231
UACC-257 = test system: UACC-257
A498 = test system: A498

COc1cc(C2C3=C(COC3=O)Oc3cc4c(cc32)OCO4)cc(OC)c1O (centres undefined)
GI50 (SF-268): 0.226 µM (active)
GI50 (PC-3): < 0.01 µM (active)
GI50 (DU-145): 0.0157 µM (active)
GI50 (NCI-H226): < 0.0118 µM (active)
GI50 (SK-MEL-2): 0.0101 µM (active)
GI50 (BT-549): 39.8 µM (inactive)
GI50 (Hs-578T): 0.0119 µM (active)
GI50 (NCI/ADR-RES): < 0.01 µM (active)
GI50 (MDA-MB-435): < 0.01 µM (active)
GI50 (ACHN): < 0.0119 µM (active)
GI50 (SF-539): < 0.01 µM (active)
GI50 (HCT-116): 0.0103 µM (active)
GI50 (MOLT-4): 0.0175 µM (active)
GI50 (MCF7): < 0.01 µM (active)
GI50 (CCRF-CEM): 0.0134 µM (active)
GI50 (A549): < 0.0141 µM (active)
GI50 (SF-295): < 0.01 µM (active)
GI50 (HL-60): < 0.01 µM (active)
GI50 (LOX IMVI): < 0.0112 µM (active)
GI50 (SW-620): 0.0124 µM (active)
GI50 (U-251): < 0.0134 µM (active)
GI50 (SK-MEL-28): < 0.01 µM (active)
GI50 (SK-OV-3): < 0.012 µM (active)
GI50 (NCI-H522): < 0.01 µM (active)
GI50 (RXF 393): < 0.01 µM (active)
GI50 (OVCAR-8): < 0.0152 µM (active)
GI50 (M14): < 0.0112 µM (active)
GI50 (NCI-H23): 0.465 µM (active)
GI50 (CAKI-1): < 0.01 µM (active)
GI50 (HT-29): < 0.0147 µM (active)
GI50 (COLO 205): < 0.0133 µM (active)
GI50 (OVCAR-4): 8.24 µM (inactive)
GI50 (K562): < 0.01 µM (active)
GI50 (OVCAR-3): 0.0127 µM (active)
GI50 (TK-10): 0.589 µM (active)
GI50 (IGROV-1): < 0.0121 µM (active)
GI50 (786-0): < 0.0152 µM (active)
GI50 (SNB-75): < 0.01 µM (active)
GI50 (HCC 2998): < 0.0209 µM (active)
GI50 (SNB-19): < 0.0123 µM (active)
GI50 (SN12C): 0.0364 µM (active)
GI50 (SR): < 0.01 µM (active)
GI50 (Malme-3M): < 0.01 µM (active)
GI50 (RPMI-8226): < 0.0232 µM (active)
GI50 (MDA-N): < 0.01 µM (active)
GI50 (UO-31): 0.0592 µM (active)
GI50 (EKVX): 0.0207 µM (active)
GI50 (HOP-62): < 0.0135 µM (active)
GI50 (NCI-H460): < 0.0139 µM (active)
GI50 (HCT-15): 0.0126 µM
GI50 (UACC-62): < 0.01 µM (active)
GI50 (T47D): 0.0157 µM (active)
GI50 (OVCAR-5): 0.0236 µM (active)
GI50 (KM12): < 0.01 µM (active)
GI50 (SK-MEL-5): < 0.01 µM (active)
GI50 (MDA-MB-231): < 0.0246 µM (active)

COc1nc(C)nc2sc3c(c12)CCCC3
GI50 (SF-268): > 100 µM (inactive)
GI50 (PC-3): > 100 µM (inactive)
GI50 (DU-145): > 100 µM (inactive)
GI50 (NCI-H226): > 100 µM (inactive)
GI50 (SK-MEL-2): > 100 µM (inactive)
GI50 (BT-549): > 100 µM (inactive)
GI50 (Hs-578T): > 100 µM (inactive)
GI50 (NCI/ADR-RES): > 100 µM (inactive)
GI50 (MDA-MB-435): > 100 µM (inactive)
GI50 (ACHN): > 100 µM (inactive)
GI50 (HCT-116): > 100 µM (inactive)
GI50 (MOLT-4): > 100 µM (inactive)
GI50 (MCF7): > 100 µM (inactive)
GI50 (SF-295): > 100 µM (inactive)
GI50 (HL-60): > 100 µM (inactive)
GI50 (LOX IMVI): > 100 µM (inactive)
GI50 (SW-620): > 100 µM (inactive)
GI50 (U-251): > 100 µM (inactive)
GI50 (SK-MEL-28): > 100 µM (inactive)
GI50 (UACC-257): > 100 µM (inactive)
GI50 (NCI-H522): > 100 µM (inactive)
GI50 (RXF 393): > 100 µM (inactive)
GI50 (OVCAR-8): > 100 µM (inactive)
GI50 (NCI-H23): > 100 µM (inactive)
GI50 (CAKI-1): > 100 µM (inactive)
GI50 (HT-29): > 100 µM (inactive)
GI50 (COLO 205): > 100 µM (inactive)
GI50 (OVCAR-4): > 100 µM (inactive)
GI50 (K562): > 100 µM (inactive)
GI50 (OVCAR-3): > 100 µM (inactive)
GI50 (TK-10): > 100 µM (inactive)
GI50 (IGROV-1): > 100 µM (inactive)
GI50 (786-0): > 100 µM (inactive)
GI50 (SNB-75): 93.3 µM (inactive)
GI50 (HCC 2998): > 100 µM (inactive)
GI50 (SNB-19): > 100 µM (inactive)
GI50 (SN12C): > 100 µM (inactive)
GI50 (SR): > 100 µM (inactive)
GI50 (Malme-3M): > 100 µM (inactive)
GI50 (RPMI-8226): 55.3 µM (inactive)
GI50 (MDA-N): > 100 µM (inactive)
GI50 (UO-31): 89.9 µM (inactive)
GI50 (EKVX): 38.4 µM (inactive)
GI50 (HOP-62): > 100 µM (inactive)
GI50 (NCI-H460): > 100 µM (inactive)
GI50 (HCT-15): > 100 µM
GI50 (UACC-62): > 100 µM (inactive)
GI50 (T47D): > 100 µM (inactive)
GI50 (A498): > 100 µM (inactive)
GI50 (OVCAR-5): > 100 µM (inactive)
GI50 (KM12): > 100 µM (inactive)
GI50 (SK-MEL-5): > 100 µM (inactive)
GI50 (MDA-MB-231): > 100 µM (inactive)
